Experimental data taken from US20230099229A1, “METHODS OF TREATING MULTIPLE SCLEROSIS” (REPRISE PHARMACEUTICALS, INC., priority 2020, published 2023).
Where a name gives a salt, the structure may show the parent alone.

Tested on: Experimental allergic encephalitis (EAE) in female C57BL/6 mice
Assay: EAE model in C57BL/6 mice, daily neurological clinical score (Example 2)
Format: in vivo, mouse
Conditions: C57BL/6 mice treated from clinical score 2 for 28 days; DMF 15 mg/kg BID, GCZ 5 mg/kg BID, alone or combined; compared to vehicle control and single agents
Description: Experimental allergic encephalitis (EAE) is induced in female C57BL/6 mice (10 weeks old) by subcutaneous injection in the flank regions (left and right sides) with 200 μl total of an emulsion of MOG35-55 peptide (200 μg in 100 μl phosphate buffered saline plus 100 μl of complete Freund's adjuvant containing […] of heat-inactivated Mycobacterium tuberculosis). Each mouse then receives 200 ng of pertussis toxin intraperitoneally (IP) on the day of immunization (day 0) and then again 48 h later (day 2). Neurological assessments are reported using a five-point standardized rating scale to evaluate motor deficit: 0, no deficit; 1, tail paralysis; 2, unilateral hind limb weakness; 3, incomplete bilateral hind limb paralysis and/or partial forelimb weakness; 4, complete hind limb paralysis and partial forelimb weakness; 5, moribund state or death.
The DMF is prepared as a suspension (15 mg/ml) in 0.8% hydroxypropyl methylcellulose (HPMC) weekly and kept at 4° C. under constant stirring. DMF is diluted into 200 μl HPMC, corresponding to a dose of 15 mg/kg body weight, and is administered twice daily (30 mg/kg/day) by oral gavage through a bulb-tipped curved gastric gavage needle by trained operators.
Experimental allergic encephalitis (EAE) was induced in female C57BL/6 mice as described in Example 1. […]

Row | Compound | EAE clinical scores (five-point motor deficit scale 0-5), fitted regression curves
1 | COC(=O)/C=C/C(=O)OC [DMF, dimethyl fumarate] | no observed difference
2 | Cc1ccc(S(=O)(=O)NC(=O)NN2CC3CCCC3C2)cc1 (centres unmarked) [GCZ, gliclazide] | no observed difference
